The conditions of series [1]: standard conditions (room temperature, standard air pressure); cited from earlier work.
The conditions of series [2]: standard conditions, worked out from 0.8 mmol and 2 g per mole.

Structures are written as SMILES.

Regarding `[HH]` [hydrogen], the “maximum concentration at which hydrogen dissolves in water” value in series [1] is listed as “about 0.8 mmol”. The “hydrogen per liter of water at maximum dissolution” value in series [2] is listed as “about 1.6 mg per liter”.

These data come from patent publication US9539282B2, “Therapeutic use of hydrogen molecules” (MAX-PLANCK-GESELLSCHAFT ZUR FORDERUNG DER WISSENSCHAFTEN …, priority 2012, dated 2017).
